Key:
[1] = Saturation concentration of elafibranor in the crystallization solvent; format: physicochemical; conditions: room temperature
animal disease models = conditions: cited from earlier work
[2] = up to 2-year carcinogenicity studies; cited from earlier work
[3] = system: patients and healthy volunteers; conditions: over 800 patients and healthy volunteers; cited from earlier work

saturation concentration of elafibranor in the solvent ([1]; N,N-dimethylacetamide): 11.9 mg/mL
saturation concentration of elafibranor in the solvent ([1]; ethanol): 28.7 mg/mL
saturation concentration of elafibranor in the solvent ([1]; methanol): 17.7 mg/mL
SMILES: CSc1ccc(C(=O)/C=C/c2cc(C)c(OC(C)(C)C(=O)O)c(C)c2)cc1 [Elafibranor, 2-(2,6-dimethyl-4-{3-[4-(methylsulfanyl)phenyl]-3-oxopropen-1-yl}phenoxy)-2-methylpropanoic acid]
histological NASH parameters (steatosis, inflammation, fibrosis) (animal disease models): efficacy
safety in full toxicological package [2]: absence of safety concern
HDL-C levels [3]: increase
insulin sensitivity and glucose homeostasis [3]: improvement
markers of liver dysfunction, including ALAT, ASAT, γGT, ALP [3]: improvement
plasma triglycerides and LDL-C [3]: decrease
